Assay results reported in patent publication US20220160651A1, “RAPIDLY IMPROVING ENDOTHELIAL FUNCTION, REDUCING ARTERIAL STIFFNESS AND REVERSING CALCIFICATION OF BLOOD VESSELS BY ADMINISTERING VITAMIN K” (KAYDENCE PHARMA AS, priority 2019, published 2022).

How the values were obtained:
Assay type in all cases: in vivo
ApoE/LDLR−/− mice [1] = assay: MRI assessment of endothelium-dependent vasodilatation (FMD in femoral artery, Ach response in abdominal aorta), young mice (Example 3)
Procedure: Mice were randomly assigned to one of four experimental groups: control (untreated group) and three groups treated with vitamin K2 at a dose of 0.05, 0.5, and 5 mg/kg b.w./day, respectively. End-point measurements were performed at the age of 10-16 weeks.
Magnetic resonance imaging (MRI) experiments were performed using a 9.4T scanner (BioSpec 94/20 USR, Bruker, Germany) located in the Department of Magnetic Resonance Imaging, Institute of Nuclear Physics, Polish Academy of Sciences in Krakow. During the experiment, mice were anaesthetized using isoflurane (Aerrane, Baxter Sp. z o. o., Poland, 1.7 vol %) in an oxygen and air (1:2) mixture and imaged in the supine position. Activity of the heart, respiration, and body temperature (maintained at 37° C. using circulating warm water) were monitored using a Monitoring and Gating System (SA Inc., Stony Brook, N.Y., USA).
Endothelial function was assessed based on vascular responses to acetylcholine (Ach) administration in brachiocephalic artery (BCA), left common carotid artery (LCA) (FIGS. 6 A and B) and abdominal aorta (AA) (FIG. 6C) as well as to responses to increase in flow (flow-mediated dilatation, FMD) in femoral artery (FA) (FIG. 6D) as described in Bar A, Skorka T, Jasinski K, Sternak M, Bartel Ż, Tyrankiewicz U, et al. Retrospectively-gated MRI for in vivo assessment of endothelium-dependent vasodilatation and endothelial permeability in murine models of endothelial dysfunction. NMR Biomed 2016; 29(8):1088.; Sternak M, Bar A, Adamski M G, Mohaissen T, Marczyk B, Kieronska A, et al. The Deletion of Endothelial Sodium Channel α (αENaC) Impairs Endothelium-Dependent Vasodilation and Endothelial Barrier Integrity in Endotoxemia in Vivo. Front Pharmacol 2018; 9:178. doi:10.3389/fphar.2018.00178.; and Bar A, Olkowicz M, Tyrankiewicz U, Kus E, Jasinski K, Smolenski R T, et al. Functional and Biochemical Endothelial Profiling In Vivo in a Murine Model of Endothelial Dysfunction; Comparison of Effects of 1-Methylnicotinamide and Angiotensin-converting Enzyme Inhibitor. Front Pharmacol 2017; 8:183. doi:10.3389/fphar.2017.00183.).
Vasomotor response was examined by comparing two time-resolved 3D images of the vessels prior to and 25 minutes after intraperitoneal Ach administration (Sigma-Aldrich, Poznan Poland: 50 μl, 16.6 mg/kg), as well as prior to and 5 minutes after vessel occlusion. Images were acquired using the cine IntraGate™ FLASH 3D sequence, reconstructed with the IntraGate 1.2.b.2 macro (Bruker). End-diastolic volumes of vessels were analyzed using ImageJ software 1.46r (NIH Bethesda, Md., USA) and scripts written in Matlab (MathWorks, Natick, Mass., USA). Imaging parameters included the following: repetition time (TR)—6.4 ms, echo time (TE)—1.4 ms, field of view (FOV) −30×30×5 mm3, matrix size—256×256×30, flip angle (FA)—30°, and number of accumulations (NA)—15, reconstructed to 7 cardiac frames. Total scan time was 10 minutes.

ApoE/LDLR−/− mice [2] = assay: Nitrite and nitrate concentration in plasma, older mice (Example 3); conditions: 0.03 and 10 mg/kg b.w./day, eight weeks
ApoE/LDLR−/− mice [3] = assay: Histological assessment of plaque size and composition and vessel wall area in BCA (Example 2); conditions: two months
Source text: Plaque size and composition as well as vessel wall area (VWA) in BCA—Histological assessment, cross-section method, BCA cross-sections: total 13000 slides, Photographed: 1214 slides
For the determination of atherosclerotic plaque area and composition BCA was dissected, fixed in 4% buffered formalin and embedded in paraffin. 5 μm-thick serial sections of BCA were collected from proximal, middle and distal parts of artery. Originally developed staining with Unna's orcein combined with Martius, Scarlet and Blue trichrome (OMSB), was applied on every tenth section (50 μm interval between each section) for visualization of collagen, elastin, fibrin, red blood cells and vascular smooth muscle cells within atherosclerotic plaque. The areas of particular components of atherosclerotic plaque as well as artery lumen and wall were determined after Columbus-based software processing (FIG. 1B) using a previously developed algorithm [Gajda M, Jasztal A, Banasik T, Jasek-Gajda E, Chlopicki S. Combined orcein and martius scarlet blue (OMSB) staining for qualitative and quantitative analyses of atherosclerotic plaques in brachiocephalic arteries in apoE/LDLR−/− mice. Histochem Cell Biol 2017. doi:10.1007/s00418-017-1538-81.

ApoE/LDLR−/− mice [4] = assay: Nitrite and nitrate concentration in plasma, HPLC-based ENO-20 (Example 2); conditions: two months; for increase in NO2− concentration in plasma: vs untreated
Procedure: Nitrite (NO2^−) and nitrate (NO3^−) concentration in plasma—HPLC-based ENO-20
Blood samples were collected from heart into test tubes containing additional anticoagulant and centrifuged at 1000 g for 10 min at 4° C. The samples were used for HPLC measurement of nitrate (NO3^−) and nitrite (NO2^−) concentrations in plasma by an ENO-20 NOx Analyzer.

[5] = 0.05 mg/kg b.w./day, eight weeks
[6] = 0.05 mg/kg b.w./day, four weeks, 15-week-old mice

In the case of CC(C)=CCC/C(C)=C/CC/C(C)=C/CC/C(C)=C/CC/C(C)=C/CC/C(C)=C/CC/C(C)=C/CC1=C(C)C(=O)c2ccccc2C1=O [MK-7, menaquinone-7], the “Ach response in AA, volume changes” value (ApoE/LDLR−/− mice [1]; [5]) is reported as −0.65%, the “FMD in FA, volume changes” value (ApoE/LDLR−/− mice [1]; [5]) is reported as 28.34% and the “Ach response in AA, volume changes” value (ApoE/LDLR−/− mice [1]; [6]) is reported as −1.59%. The “FMD in FA, volume changes” value (ApoE/LDLR−/− mice [1]; [6]) was 33.26%, the “Ach response in AA, volume changes” value (ApoE/LDLR−/− mice [1]; 0.5 mg/kg b.w./day, two weeks) was 1.52% and the “FMD in FA, volume changes” value (ApoE/LDLR−/− mice [1]; 0.5 mg/kg b.w./day, two weeks) was 28.57%. The “Ach response in AA, volume changes” value (ApoE/LDLR−/− mice [1]; 5 mg/kg b.w./day, two weeks) was 0.16%, the “FMD in FA, volume changes” value (ApoE/LDLR−/− mice [1]; 5 mg/kg b.w./day, two weeks) was 26.55% and the “concentration of NO3− in plasma” value (ApoE/LDLR−/− mice [2]) was “did not change significantly”. The “decrease in vessel wall area (VWA) of BCA” value (ApoE/LDLR−/− mice [3]; low and high dose (0.03 and 10 mg/kg b.w./day)) was “about 5%”, the “decrease of lipid core expressed as percent of plaque” value (ApoE/LDLR−/− mice [3]; low and high dose) was “about 17%” and the “effect on plaque size” value (ApoE/LDLR−/− mice [3]; low or high dose) was “did not result in a beneficial effect on plaque size”. The “plaque and lumen area expressed as percent of IWA” value (ApoE/LDLR−/− mice [3]; low or high dose) was “did not change”, the “internal wall area (IWA)” value (ApoE/LDLR−/− mice [3]; lower dose 0.03 mg/kg b.w./day) was “decreased only in the middle part of the vessel” and the “content of collagen in plaque” value (ApoE/LDLR−/− mice [3]; treated vs untreated groups) was “lack of differences between treated and untreated groups”. The “concentration of NO3− in plasma” value (ApoE/LDLR−/− mice [4]; 0.03 and 10 mg/kg b.w./day) was “did not change significantly”, the “increase in NO2− concentration in plasma” value (ApoE/LDLR−/− mice [4]; high dose 10 mg/kg b.w./day) was about 42% and the “increase in NO2− concentration in plasma” value (ApoE/LDLR−/− mice [4]; low dose 0.03 mg/kg b.w./day) was “about 58%”.
